Experimental findings from patent US6656911B2, “Serine protease inhibitors” (Cortech, Inc., priority 1994, dated 2003) are described below.

The target in this assay is T1, elastase derived from human sputum (HSE) (Homo sapiens, UniProt P08246).
T1 construct: prepared from commercially available HSE (875 U/mg protein, SE-563, Elastin Product Co., Inc., Missouri, USA); purchased Elastin Product Co., Inc., Missouri, USA SE-563; host or cells: human sputum (natural enzyme)
T1 sequence (P08246 30-247 limits assumed): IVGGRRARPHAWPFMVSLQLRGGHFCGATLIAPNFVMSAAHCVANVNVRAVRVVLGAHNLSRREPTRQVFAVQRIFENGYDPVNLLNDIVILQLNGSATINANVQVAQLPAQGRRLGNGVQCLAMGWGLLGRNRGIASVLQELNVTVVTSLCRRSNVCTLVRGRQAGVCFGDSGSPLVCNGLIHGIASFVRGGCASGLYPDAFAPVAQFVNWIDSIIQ
The assay is described as follows: In vitro inhibition of elastase (ONO-PO series). In kind it is biochemical. To be noted: substrate N-methoxysuccinyl-Ala-Ala-Pro-Val-p-nitroaniline, 37° C., pH 8.0, IC50 converted to Ki by Dixson plot.

`CC(C)[C@H](NC(=O)Cn1c(-c2ccccc2)nccc1=O)C(=O)c1nnc(C2(C)CC2)o1` [ONO-PO-735, 2-[6-Oxo-2-phenyl-1,6-dihydro-1-pyrimidinyl]-N-[1-(2-[5-(1-methylcyclopropyl)-1,3,4-oxadiazolyl]carbonyl)-2-(S)-methylpropyl]acetamide] yielded a Ki of 26.4 nM.
